In ChEMBL document CHEMBL4138076, “Methyllysine binding domains: Structural insight and small molecule probe development” (Eur J Med Chem, 2017):
Each block holds one compound with its values, some of them ahead of it. Square brackets hold non-standard residues; d marks the D form. Peptide text beside a SMILES is read from it. * marks the point of attachment. Lys(Me3) = C[N+](C)(C)CCCC[C@H](N)C(=O)O; Bz = O=C(c1ccccc1)*

Experiments:
[1] = Inhibition of PRC2 (unknown origin) after 70 mins in presence of [3H]SAM by TopCount method; design: species or system Homo sapiens
[2] = molecular target: T1, Lysine-specific demethylase 5A (Homo sapiens, UniProt P29375); assay: Inhibition of JARID1A PHD finger domain (unknown origin)
[3] = molecular target: TP53-binding protein 1 (Homo sapiens, UniProt Q12888); assay: Competitive displacement of p53K382me2 from His-tagged 53BP1 tandem Tudor domain (unknown origin)
[4] = molecular target: TP53-binding protein 1 (Mus musculus) (UniProt P70399); assay: Inhibition of 53BP1 in mouse naive IgM+ B cells assessed as suppression of LPS/IL4 stimulated B cell antibody class switch recombination by FACS analsysis; assay type: cell-based; conditions: concentration not given here
[5] = molecular target: T2, Chromodomain Y-like protein (Homo sapiens) (UniProt Q9Y232); assay: Binding affinity to N-terminal GST-tagged CDYL (1 to 78 residues) (unknown origin) expressed in Rosetta2 BL21(DE3)pLysS cells after 30 mins by ITC method
T2 sequence (whole entry): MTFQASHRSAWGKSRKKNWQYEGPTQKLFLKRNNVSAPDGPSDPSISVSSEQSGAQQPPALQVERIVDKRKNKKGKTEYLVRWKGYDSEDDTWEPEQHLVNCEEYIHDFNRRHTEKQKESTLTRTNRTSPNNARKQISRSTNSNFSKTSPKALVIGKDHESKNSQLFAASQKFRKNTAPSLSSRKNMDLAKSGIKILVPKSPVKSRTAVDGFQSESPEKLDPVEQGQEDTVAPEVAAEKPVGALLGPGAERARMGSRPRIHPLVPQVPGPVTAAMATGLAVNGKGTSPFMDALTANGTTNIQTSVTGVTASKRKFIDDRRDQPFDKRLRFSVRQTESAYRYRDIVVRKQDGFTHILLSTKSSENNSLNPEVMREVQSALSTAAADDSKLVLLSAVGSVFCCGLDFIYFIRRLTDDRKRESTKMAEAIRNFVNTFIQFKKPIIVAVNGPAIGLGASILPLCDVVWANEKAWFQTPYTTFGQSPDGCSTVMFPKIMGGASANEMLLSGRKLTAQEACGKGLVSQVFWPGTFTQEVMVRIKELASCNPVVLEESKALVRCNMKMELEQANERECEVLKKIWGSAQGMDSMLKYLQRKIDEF

[6] = molecular target: T3, Chromobox protein homolog 7 (Homo sapiens, UniProt O95931); assay: Binding affinity to Cbx7 (unknown origin) by ITC method
T3 sequence (O95931 whole entry): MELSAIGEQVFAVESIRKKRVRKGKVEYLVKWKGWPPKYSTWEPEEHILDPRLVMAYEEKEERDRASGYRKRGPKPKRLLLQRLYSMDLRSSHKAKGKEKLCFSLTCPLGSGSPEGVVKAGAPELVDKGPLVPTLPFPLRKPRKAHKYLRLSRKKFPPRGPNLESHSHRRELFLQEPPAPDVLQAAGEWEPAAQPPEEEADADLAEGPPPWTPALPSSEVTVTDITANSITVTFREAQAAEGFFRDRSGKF

[7] = molecular target: Polycomb protein EED (Homo sapiens, UniProt O75530); assay: Binding affinity to full length N-terminal His-tagged EED (unknown origin) expressed in Rosetta2 BL21(DE3)pLysS cells by ITC method
[8] = molecular target: T4, Lethal(3)malignant brain tumor-like protein 1 (Homo sapiens, UniProt Q9Y468); assay: Inhibition of L3MBTL1 (unknown origin) by AlphaScreen assay
T4 sequence (Q9Y468 whole entry): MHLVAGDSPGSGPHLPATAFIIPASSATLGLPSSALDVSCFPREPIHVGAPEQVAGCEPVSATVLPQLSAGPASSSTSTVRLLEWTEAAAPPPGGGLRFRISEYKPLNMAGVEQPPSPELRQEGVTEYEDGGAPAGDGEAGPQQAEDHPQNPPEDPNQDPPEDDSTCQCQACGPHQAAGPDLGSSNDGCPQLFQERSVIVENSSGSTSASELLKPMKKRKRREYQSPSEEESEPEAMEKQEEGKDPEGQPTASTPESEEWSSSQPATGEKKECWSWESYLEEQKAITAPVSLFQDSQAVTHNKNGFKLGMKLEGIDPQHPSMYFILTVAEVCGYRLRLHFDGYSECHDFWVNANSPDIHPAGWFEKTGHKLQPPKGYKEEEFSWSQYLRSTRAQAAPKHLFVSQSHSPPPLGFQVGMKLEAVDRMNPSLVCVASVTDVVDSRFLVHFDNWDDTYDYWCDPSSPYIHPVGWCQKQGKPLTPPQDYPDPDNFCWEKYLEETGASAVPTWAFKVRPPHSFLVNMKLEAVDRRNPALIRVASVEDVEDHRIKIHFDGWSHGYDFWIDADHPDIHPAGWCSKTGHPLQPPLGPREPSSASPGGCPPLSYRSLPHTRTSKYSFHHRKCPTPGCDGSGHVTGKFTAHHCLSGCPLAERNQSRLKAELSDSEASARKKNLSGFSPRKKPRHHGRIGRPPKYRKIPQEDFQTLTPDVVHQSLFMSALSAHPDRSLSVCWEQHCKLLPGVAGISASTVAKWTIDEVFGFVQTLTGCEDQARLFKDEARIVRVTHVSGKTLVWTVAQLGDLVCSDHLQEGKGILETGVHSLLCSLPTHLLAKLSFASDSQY

[9] = molecular target: T3, Chromobox protein homolog 7; assay: Inhibition of Cbx7 (unknown origin) using FITC-labeled SETDB1-K1170me3 peptide as probe by fluorescence polarization assay
[10] = molecular target: Histone-lysine N-methyltransferase 2A (Homo sapiens, UniProt Q03164); assay: Binding affinity to 15N-labeled GST-tagged MLL1 PHD3 finger domain (1565 to 1627 residues) (unknown origin) expressed in Escherichia coli Rosetta2 BL21(DE3) pLysS cells by NMR Spectroscopy method
[11] = molecular target: T1, Lysine-specific demethylase 5A; assay: Inhibition of JARID1A (unknown origin)

Sequence of Polycomb protein EED (O75530 whole entry): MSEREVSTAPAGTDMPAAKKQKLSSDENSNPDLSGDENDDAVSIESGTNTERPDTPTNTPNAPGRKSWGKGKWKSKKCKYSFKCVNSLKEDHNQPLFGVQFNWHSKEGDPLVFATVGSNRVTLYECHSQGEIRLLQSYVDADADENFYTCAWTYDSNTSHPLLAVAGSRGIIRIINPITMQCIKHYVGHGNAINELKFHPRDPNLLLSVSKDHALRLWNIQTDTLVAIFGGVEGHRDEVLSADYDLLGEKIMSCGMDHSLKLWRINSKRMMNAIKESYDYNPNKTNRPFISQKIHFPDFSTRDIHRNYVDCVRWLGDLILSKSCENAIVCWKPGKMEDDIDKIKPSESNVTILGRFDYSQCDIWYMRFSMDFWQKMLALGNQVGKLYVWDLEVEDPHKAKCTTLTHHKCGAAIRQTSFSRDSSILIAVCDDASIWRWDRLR
T1 sequence (P29375 whole entry, the tested form may be a part): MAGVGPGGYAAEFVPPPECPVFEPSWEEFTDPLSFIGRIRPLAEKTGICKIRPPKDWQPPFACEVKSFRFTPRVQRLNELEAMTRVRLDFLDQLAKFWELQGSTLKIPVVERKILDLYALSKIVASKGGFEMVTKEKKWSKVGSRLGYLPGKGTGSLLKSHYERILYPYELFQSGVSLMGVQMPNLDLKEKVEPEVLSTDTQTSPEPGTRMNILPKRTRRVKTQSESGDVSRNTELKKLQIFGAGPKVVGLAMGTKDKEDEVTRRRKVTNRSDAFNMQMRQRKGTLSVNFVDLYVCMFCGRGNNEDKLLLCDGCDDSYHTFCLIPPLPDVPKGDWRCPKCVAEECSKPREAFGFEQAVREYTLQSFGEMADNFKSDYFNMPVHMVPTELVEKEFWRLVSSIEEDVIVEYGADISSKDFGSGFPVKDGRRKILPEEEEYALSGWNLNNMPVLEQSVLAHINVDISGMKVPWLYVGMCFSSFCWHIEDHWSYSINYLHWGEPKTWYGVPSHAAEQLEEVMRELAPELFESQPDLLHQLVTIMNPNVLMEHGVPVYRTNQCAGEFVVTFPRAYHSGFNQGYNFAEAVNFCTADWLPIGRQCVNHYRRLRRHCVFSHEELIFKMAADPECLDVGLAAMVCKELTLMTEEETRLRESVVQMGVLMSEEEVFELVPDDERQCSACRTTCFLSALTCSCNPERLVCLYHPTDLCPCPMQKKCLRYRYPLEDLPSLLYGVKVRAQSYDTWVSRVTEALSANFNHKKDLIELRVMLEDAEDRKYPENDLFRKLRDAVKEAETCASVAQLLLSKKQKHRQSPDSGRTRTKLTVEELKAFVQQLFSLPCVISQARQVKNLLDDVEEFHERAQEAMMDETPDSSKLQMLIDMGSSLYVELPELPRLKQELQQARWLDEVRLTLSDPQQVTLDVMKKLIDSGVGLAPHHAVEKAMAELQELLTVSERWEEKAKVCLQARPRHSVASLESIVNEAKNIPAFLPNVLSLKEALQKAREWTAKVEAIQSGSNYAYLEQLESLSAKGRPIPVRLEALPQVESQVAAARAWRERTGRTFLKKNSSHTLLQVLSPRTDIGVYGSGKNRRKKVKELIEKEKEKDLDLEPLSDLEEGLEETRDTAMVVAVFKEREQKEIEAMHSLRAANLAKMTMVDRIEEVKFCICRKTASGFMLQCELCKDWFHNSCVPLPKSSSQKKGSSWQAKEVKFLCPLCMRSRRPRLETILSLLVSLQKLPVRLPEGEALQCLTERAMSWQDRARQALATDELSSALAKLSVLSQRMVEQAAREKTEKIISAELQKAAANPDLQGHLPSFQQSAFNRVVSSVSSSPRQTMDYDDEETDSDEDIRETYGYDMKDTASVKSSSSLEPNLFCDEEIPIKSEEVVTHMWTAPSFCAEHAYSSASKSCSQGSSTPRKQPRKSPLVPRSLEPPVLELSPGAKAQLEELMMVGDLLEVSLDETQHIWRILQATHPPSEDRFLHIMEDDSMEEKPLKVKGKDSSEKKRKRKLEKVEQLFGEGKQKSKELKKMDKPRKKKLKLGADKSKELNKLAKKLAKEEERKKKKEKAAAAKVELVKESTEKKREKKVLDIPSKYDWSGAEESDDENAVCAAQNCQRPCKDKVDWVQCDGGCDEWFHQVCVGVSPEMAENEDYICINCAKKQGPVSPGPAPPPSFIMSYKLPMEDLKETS
Sequence of TP53-binding protein 1 (Q12888 whole entry, the tested form may be a part): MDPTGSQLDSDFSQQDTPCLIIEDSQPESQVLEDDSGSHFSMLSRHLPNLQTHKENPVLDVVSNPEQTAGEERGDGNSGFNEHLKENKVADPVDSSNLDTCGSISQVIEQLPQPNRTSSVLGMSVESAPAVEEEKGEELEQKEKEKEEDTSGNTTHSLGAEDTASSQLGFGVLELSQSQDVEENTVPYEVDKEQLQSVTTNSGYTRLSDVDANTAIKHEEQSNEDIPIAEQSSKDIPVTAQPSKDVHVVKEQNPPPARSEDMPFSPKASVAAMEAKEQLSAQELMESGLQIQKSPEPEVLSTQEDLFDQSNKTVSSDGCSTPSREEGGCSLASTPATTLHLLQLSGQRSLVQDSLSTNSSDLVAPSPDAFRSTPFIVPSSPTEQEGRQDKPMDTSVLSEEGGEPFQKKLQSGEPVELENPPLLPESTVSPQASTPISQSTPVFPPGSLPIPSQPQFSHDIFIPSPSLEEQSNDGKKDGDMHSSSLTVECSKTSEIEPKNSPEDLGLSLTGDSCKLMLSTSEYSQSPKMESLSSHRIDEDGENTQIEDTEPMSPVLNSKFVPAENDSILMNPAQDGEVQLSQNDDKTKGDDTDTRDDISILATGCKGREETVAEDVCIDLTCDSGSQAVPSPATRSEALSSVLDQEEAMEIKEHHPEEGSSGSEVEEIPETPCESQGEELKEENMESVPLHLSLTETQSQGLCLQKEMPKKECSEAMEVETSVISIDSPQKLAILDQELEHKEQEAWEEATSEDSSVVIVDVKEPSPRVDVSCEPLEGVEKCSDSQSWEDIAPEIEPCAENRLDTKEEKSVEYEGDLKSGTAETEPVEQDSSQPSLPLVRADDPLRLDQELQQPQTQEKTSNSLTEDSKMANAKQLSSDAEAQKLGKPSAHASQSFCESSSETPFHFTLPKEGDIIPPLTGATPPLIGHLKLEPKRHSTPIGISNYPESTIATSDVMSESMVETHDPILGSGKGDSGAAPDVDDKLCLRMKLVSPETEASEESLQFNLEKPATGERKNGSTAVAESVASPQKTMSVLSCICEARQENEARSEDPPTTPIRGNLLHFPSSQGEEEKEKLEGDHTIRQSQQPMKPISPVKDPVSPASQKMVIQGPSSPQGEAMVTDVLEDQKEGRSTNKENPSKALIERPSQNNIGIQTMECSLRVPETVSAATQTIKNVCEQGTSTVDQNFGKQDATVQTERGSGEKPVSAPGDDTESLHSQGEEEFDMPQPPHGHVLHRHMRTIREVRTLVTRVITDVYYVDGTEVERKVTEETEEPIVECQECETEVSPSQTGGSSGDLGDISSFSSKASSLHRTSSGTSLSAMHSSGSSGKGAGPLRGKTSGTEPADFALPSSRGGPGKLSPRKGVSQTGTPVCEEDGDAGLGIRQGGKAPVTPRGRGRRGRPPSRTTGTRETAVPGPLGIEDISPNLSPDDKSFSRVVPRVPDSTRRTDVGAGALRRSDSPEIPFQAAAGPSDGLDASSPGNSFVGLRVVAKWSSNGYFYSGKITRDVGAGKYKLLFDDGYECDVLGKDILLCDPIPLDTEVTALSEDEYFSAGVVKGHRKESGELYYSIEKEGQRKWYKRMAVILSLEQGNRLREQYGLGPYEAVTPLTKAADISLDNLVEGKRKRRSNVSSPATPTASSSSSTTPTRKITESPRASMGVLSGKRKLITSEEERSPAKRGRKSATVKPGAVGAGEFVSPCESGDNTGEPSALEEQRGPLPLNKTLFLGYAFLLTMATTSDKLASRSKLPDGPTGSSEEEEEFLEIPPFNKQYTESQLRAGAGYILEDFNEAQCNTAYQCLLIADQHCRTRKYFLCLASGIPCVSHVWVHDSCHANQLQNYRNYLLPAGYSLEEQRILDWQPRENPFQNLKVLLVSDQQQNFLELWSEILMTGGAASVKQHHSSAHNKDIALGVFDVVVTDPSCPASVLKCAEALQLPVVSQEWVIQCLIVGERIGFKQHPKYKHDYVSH

Ki [1]: 0.4 nM
SMILES: CN(C)[C@H]1CN(C2CCc3cccc(F)c32)C[C@@H]1c1ccc(N2CCN(S(C)(=O)=O)CC2)cc1 (some centres not stated)

IC50 [2]: 10 µM
SMILES: CCN(CC)C(=S)SSC(=S)N(CC)CC

IC50 [3]: 30 µM | inhibition [4]: 64% | Activity [5]: 64%
SMILES: CC(C)(C)NCCCNC(=O)c1cccc(Br)c1

Kd [6]: 5 µM
SMILES: COC(=O)CNC(=O)[C@H](Cc1cnc[nH]1)NC(=O)[C@@H](NC(=O)[C@H](CO)NC(=O)[C@H](CCCC[N+](C)(C)C)NC(=O)[C@H](CC(C)C)NC(=O)[C@H](C)NC(=O)[C@H](Cc1ccccc1)NC(=O)CNC(=O)[C@H](CCCNC(=N)N)NC(=O)c1ccccc1)[C@@H](C)O (Bz-RGFAL[Lys(Me3)]STHG-OMe)

Kd [7]: 8.8 µM
SMILES: COC(=O)[C@H](C)NC(=O)[C@H](Cc1ccccc1)NC(=O)[C@H](CCCC[N+](C)(C)C)NC(=O)[C@H](CCCNC(=N)N)NC(=O)[C@@H](N)CCC(N)=O (H-QR[Lys(Me3)]FA-OMe)

Kd [7]: 3 µM
SMILES: CC(C)C[C@H](NC(=O)[C@@H](N)CCCNC(=N)N)C(=O)N[C@@H](CCC(N)=O)C(=O)N[C@@H](C)C(=O)N[C@@H](CCC(N)=O)C(=O)N[C@@H](CCCNC(=N)N)C(=O)N[C@@H](CCCC[N+](C)(C)C)C(=O)N[C@@H](Cc1ccccc1)C(=O)N[C@@H](C)C(=O)N[C@@H](CCC(N)=O)C(=O)N[C@@H](CO)C(=O)N[C@@H](CCC(N)=O)C(=O)N[C@@H](Cc1ccc(O)cc1)C(=O)O

SMILES: NC(=O)c1cc[n+](CC2=C(C(=O)O)N3C(=O)[C@@H](NC(=O)[C@@H](c4ccccc4)S(=O)(=O)[O-])[C@H]3SC2)cc1 [CEFSULODIN]
IC50 [8]: 98 nM

SMILES: Cc1ccc(C(=O)Nc2ccc(S(=O)(=O)O)c3cc(S(=O)(=O)O)cc(S(=O)(=O)O)c23)cc1NC(=O)c1cccc(NC(=O)Nc2cccc(C(=O)Nc3cc(C(=O)Nc4ccc(S(=O)(=O)O)c5cc(S(=O)(=O)O)cc(S(=O)(=O)O)c45)ccc3C)c2)c1 [SURAMIN]
IC50 [9]: 8.1 µM

Kd [10]: 20 µM | Kd [11]: 800 to 900 nM
SMILES: C[C@H](NC(=O)[C@H](CCCCN)NC(=O)CNC(=O)CNC(=O)[C@@H](NC(=O)[C@H](CO)NC(=O)[C@H](CCCCN)NC(=O)[C@H](CCCNC(=N)N)NC(=O)[C@H](C)NC(=O)[C@@H](NC(=O)[C@H](CCC(N)=O)NC(=O)[C@H](CCCC[N+](C)(C)C)NC(=O)[C@@H](NC(=O)[C@H](CCCNC(=N)N)NC(=O)[C@H](C)NC(=S)Nc1ccc(C2=C3C=CC(O)=CC3Oc3cc(O)ccc32)c(C(=O)O)c1)[C@@H](C)O)[C@@H](C)O)[C@@H](C)O)C(=O)O (some centres not stated)
